Here are results for one compound from US20230310573A1, “Stabilized Vaccine Compositions” (priority 2020, published 2023).

Data set [1] deals with T1, RSV pre-fusion F protein of SEQ ID NO: 10 (Human respiratory syncytial virus A, UniProt P03420, D486N/DEL108-136/I379V/M447V/N67I/P102A/S215P).
T1 construct: made in house
As to the kind of experiment: Thermo-stability (Tm50) of RSV pre-fusion F by Differential Scanning Fluorimetry (DSF). Format: physicochemical. Here is the method: Thermo-stability of the RSV pre-fusion F protein of SEQ ID NO: 10 was determined by Differential Scanning Fluorimetry (DSF) by monitoring the fluorescent emission of Sypro Orange Dye (ThermoFisher Scientific) in a 96 well optical qPCR plate. Inhibitors were diluted in DMSO prior to the experiment. Same amount of DMSO was added to pre-fusion F protein without inhibitor. To each well, 5 μl of 20× Sypro orange solution was added. Upon gradual increase of the temperature, from 25° C. to 95° C. (0.015° C./s), the polypeptides unfold and the fluorescent dye binds to the exposed hydrophobic residues leading to a characteristic change in emission. The melting curves were measured using a ViiA7 real time PCR machine (Applied Biosystems). The 1st derivative of the fluorescent signal (a.u.) versus the temperature (° C.) of three individual samples (technical triplicate), as well as the averaged melting curve, were plotted with Graphpad Prism software (Dan Diego, CA, US). From the averaged melting curve, the Tm50 was deducted (lowest point on the curve). The Tm50 values represent the temperature at which 50% of the protein is unfolded and thus are a measure for the temperature stability of the polypeptides. The increase of the Tm50 is reported as difference of the Tm50 of pre-fusion F protein with stabilizing antiviral compound compared with the Tm50 of pre-fusion F protein with only addition of DMSO (i.e. without antiviral compound).
(§1) Vials were frozen to −70° C. in 24 hours under controlled conditions. Samples were subsequently thawed to RT and analyzed by analytical Size Exclusion Chromatography (SEC) to measure loss of RSV F trimer compared the sample that was kept at 4° C. In addition, the dialyzed materials with and without stabilizing compound III were evaluated in DSF to measure the melting temperature. For experimental details see example 2.
as §1, with “Each formulation (pre and post UF/DF samples) was diluted to 0.3 mg/ml. 0.75 ml of each formulation was filled in glass injection vials with rubber stopper and sealed with aluminum caps. Vials” for “Vials”, “different formulations” for “dialyzed materials”
Each formulation (pre and post dialysis samples) was diluted to 0.3 mg/ml. 0.75 ml of each formulation was filled in glass injection vials with rubber stopper and sealed with aluminum caps. Vials were slowly frozen to −70° C. in 24 hours. Samples were subsequently thawed to RT and analyzed by analytical Size Exclusion Chromatography (SEC) to measure loss of RSV F trimer compared the sample that was kept at 4° C. In addition, the different formulations with and without compound III were evaluated in DSF to measure the melting temperature. For experimental details see example 2.

Data set [2] addresses T2, RSV pre-fusion F (preF) protein of SEQ ID NO: 10 (Human respiratory syncytial virus A, UniProt P03420, D486N/DEL108-136/I379V/M447V/N67I/P102A/S215P).
T2 construct: made in house
As to the kind of experiment: Quantification of stabilizing compound III after UF/DF by LC-MS/MS. Format: physicochemical. The note with it: high excess (1:50) added before UF/DF. Here is the method: FIG. 13. Buffer exchange using different buffers & and excess stabilizing compound III. Samples that contained stabilizing compound III, were pre-incubated for 24 h at room temperature (RT). […] Then, samples were assessed for (a) aggregation level by analytical SEC, (b) melting temperature by DSF (Day 0). Individual replicates (n=5 for slow freeze; n=3 for DSF), mean and error bars indicating the standard deviation are depicted. (c) Quantification of stabilizing compound III after UF/DF. Samples that were previously UF/DF-ed and snap frozen were used to quantify the amount of FI left after buffer exchange. Quantification was performed using a LC-MS/MS. Plotted in the left Y axis the concentration from each sample. Right Y axis corresponds to the equivalence of stabilizing compound III molecules per trimer.
Additionally, the concentration of stabilizing compound III present in the samples after UF/DF was determined by LC-MS/MS.

Consider `CS(=O)(=O)CCCn1c(Cn2c(=O)n(C3CC3)c3ccncc32)nc2cc(Br)ccc21` [Compound III, 3-[[5-bromo-1-(3-methylsulfonylpropyl)benzimidazol-2-yl]methyl]-1-cyclopropyl-imidazo[4,5-c]pyridin-2-one], for which the “Tm50 (DSF) after buffer exchange” value in data set [1] (1:50, Formulation 1 and 2 without PS20, AP1) is listed as “increased the Tm50 irrespective of the buffer”. Also, the “Tm50 (DSF) after UF/DF” value in data set [1] (compound in the protein and in the diavolume) was “yielded the highest Tm50”. In data set [1] (dialysis experiment), the “Tm50 (DSF), 1:30 ratio vs 1:3 ratio” value was “yielded a higher Tm50 than a 1:3 ratio”. Further, the “Tm50 (DSF) vs samples without compound” value in data set [1] (pre- and post-dialysis samples) is “higher”. For the same compound, in data set [1] (stored at 4° C., Day 0, 21, 84), the “Tm50 (DSF) over time after dialysis” value is listed as “remained relatively constant”. Moreover, the “compound bound after UF/DF (LC-MS/MS)” value in data set [2] was ~2.6 molecules of stabilizing compound III per trimer.
